Laboratory results from patent US20260055137A1, “NOVEL ISOLATED PEPTIDES, PROTEIN HYDROLYSATE COMPRISING THE SAID ISOLATED PEPTIDES AND USE THEREOF” (BETAGRO PUBLIC COMPANY LIMITED, priority 2022, published 2026).
No end group written: not given here.

Columns and labels:
[1] = Quantification of peptides in the hydrolyzed chicken plasma sample and DoT factors; details: ratio of concentration in hydrolyzed chicken plasma sample to taste threshold in model broth
Text: To identify the peptides which play a key role on taste-active and taste-modulating effects, not only the 21 newly identified peptides, but also literature-known basic tastants (e.g., amino acids, γ-glutamyl peptides, cations, anions, etc.) were quantified in the hydrolyzed chicken plasma sample. Focusing on the 21 newly identified peptides, the taste quality, taste thresholds, dose over threshold (DOT) factors and concentrations of the peptides in the hydrolyzed chicken plasma sample are shown in Table 6. The taste thresholds determined for the newly identified peptides (those are listed in Table 6) were used for the calculation of DoT factors which are defined as the ratio of the concentration of a substance and its corresponding taste threshold concentration. The DoT factors enable a first estimation of the taste contribution as substances with DoT factors≥1 most likely contribute directly to the perceived taste.

[2] = test system: sensory panel; assay: Taste threshold in model broth (taste modulating properties), duo-trio tests; assay type: in vivo; details: for Taste properties in model broth / Threshold in model broth: model broth pH 6.0; for Threshold in model broth: taste modulating threshold; for Taste threshold in model broth: as listed in Table 6
Description: (§1) The threshold concentrations of 21 newly identified peptides were determined in water for the intrinsic taste and in model broth (pH 6.0 adjusted with 1% formic acid) for the taste modulating properties, respectively (Table 4). The peptides were dissolved, serially diluted 1:2, and presented to the panel using duo-trio-tests with ascending concentrations as reported in literatures. The geometric mean of the last and the second to last concentration was calculated and taken as the individual recognition threshold. The threshold value of the sensory panel was approximated by averaging the threshold values of the individuals in two independent sessions. [formula] • wherein • Cp: the threshold of a panelist, • C1: the first correctly evaluated concentration, • C0: the first misjudged concentration [formula] • wherein • Cs: the thresholds of total panelists, • Cp: the threshold of a panelist, • n: the number of panel members

[3] = test system: sensory panel; assay: Taste threshold in water (intrinsic taste), duo-trio tests; assay type: in vivo
Description: as §1

[4] = test system: sensory panel; assay: Taste threshold in model broth (taste modulating properties), duo-trio tests; assay type: in vivo; details: as listed in Table 7
[5] = test system: Panelists; assay: Salt isointensity test; assay type: in vivo; details: for Average perceived salt isointensity / Salt-taste enhancing or reducing property: peptide 1 mmol/L in model broth containing 50 mM NaCl; for Enhancement or reduction: versus 50 mM NaCl, isointensity above 50 = enhancement, below 50 = reduction, peptide 1 mmol/L
Description: To investigate the effects of peptides on the perceived saltiness, a salt isointensity test was performed according to literatures. In salt-isointensity test, the peptides (1 mmol/L) were spiked into model broth containing 50 mM NaCl and the panelists were asked to evaluate the intensity of saltiness compared with the following NaCl concentrations of 30, 40, 50, 60, 70, and 80 mmol/L. The results are shown in Table 5.

[6] = test system: sensory panel; assay: Taste threshold in commercial chicken soup, duo-trio tests; assay type: in vivo; details: for Taste threshold in food products, Commercial chicken soup: 3 g powder in 150 mL, spiked at 2 mmol/L, diluted
Text: To investigate the taste-modulating performance of the identified peptides in food products, the commercial chicken soup and model broth were used for further sensory experiments. According to the sensory experiment, the peptides such as Pro-Val-Leu-Lys (SEQ ID NO: 1), Pro-Leu-Pro-Arg (SEQ ID NO: 2), Glu-Ala-Glu-Phe-Asp (SEQ ID NO: 3), Pro-Gln-Pro-Glu-Arg (SEQ ID NO: 5), and Glu-Asp-Ala-Pro-Val-Leu-His (SEQ ID NO: 7) are spiked into the commercial chicken soup (Netto Marken-Discount AG&CO.KG, Maxhütte-Haidhof) and the model broth. According to the experiments, 3 g of the commercial chicken soup powder was dissolved in 150 mL boiling water. The peptides (each 2 mmol/L) were spiked into 20 mL solution of this solution. Afterwards, the taste threshold was determined by means of duo-trio-tests as previously described (using chicken soup as reference).

Row | Substance | DoT factor [1] | Taste properties in model broth [2] | Threshold in model broth [2] | Threshold in water [3] | Taste threshold in model broth [2] | Taste properties in water [3] | Taste threshold in food products, Model broth [4] | Average perceived salt isointensity [5] | Salt-taste enhancing or reducing property [5] | Enhancement or reduction [5] | Not differentiated up to max concentration tested in commercial chicken soup ([6]; commercial chicken soup) | Taste threshold in food products, Commercial chicken soup ([6]; commercial chicken soup) | Threshold in model broth, times lower than in commercial chicken soup ([6]; chicken soup versus model broth)
1 | Arg-Asn-Gly-Pro-Arg (RNGPR; Poultry) [SEQ ID NO: 17] | 0.0 | kokumi, umami | 101 µmol/L | tasteless |  |  |  |  |  |  |  |  | 
2 | EDAPVLH [SEQ ID NO: 7] | 0.1 |  |  | 565 µmol/L | 236 µmol/L | astringent | 236 µmol/L |  |  |  |  |  | 
3 | EDEVLATP [SEQ ID NO: 21] |  |  | 96 µmol/L | 894 µmol/L |  |  |  | 59.8 mmol/L NaCl | salt-tase enhancing | 20% |  |  | 
4 | EETPSHD [SEQ ID NO: 9] | 0.1 | umami, kokumi | 36 µmol/L | 283 µmol/L |  |  |  |  |  |  |  |  | 
5 | EEVEEEEVE [SEQ ID NO: 10] | 0.1 | umami, kokumi | 34 µmol/L | 233 µmol/L |  |  |  |  |  |  |  |  | 
6 | EFDARPT [SEQ ID NO: 8] | 0.0 | kokumi, salty | 351 µmol/L | tasteless |  |  |  | 66.7 mmol/L NaCl | salt-tase enhancing | 33% |  |  | 
7 | EFDEKAPD [SEQ ID NO: 11] |  |  | 67 µmol/L | 865 µmol/L |  | bitter |  | 62.1 mmol/L NaCl | salt-tase enhancing | 24% |  |  | 
8 | EFDEKPAD [SEQ ID NO: 6] |  |  | 94 µmol/L | tasteless |  |  |  | 60.0 mmol/L NaCl | salt-tase enhancing | 20% |  |  | 
9 | EGDSAAI [SEQ ID NO: 19] | 0.2 | umami, kokumi | 212 µmol/L | tasteless |  |  |  |  |  |  |  |  | 
10 | ENAPDQK [SEQ ID NO: 12] | 0.2 | kokumi, umami | 137 µmol/L | 907 µmol/L |  |  |  |  |  |  |  |  | 
11 | EPEGDVHQ [SEQ ID NO: 20] |  | umami, kokumi | 61 µmol/L | 243 µmol/L |  |  |  |  |  |  |  |  | 
12 | Glu-Ala-Glu-Phe-Asp (EAEFD; Poultry) [SEQ ID NO: 3] |  |  |  | 116 µmol/L | 95 µmol/L |  | 95 µmol/L | 43.0 mmol/L NaCl | salt-tase reducing | 14% |  |  | 
13 | Glu-Asp-Met-Ala-Pro (EDMAP; Poultry) [SEQ ID NO: 13] | 0.2 | kokumi, salty | 151 µmol/L | 1024 µmol/L |  |  |  | 43.8 mmol/L NaCl |  | 13% |  |  | 
14 | Pro-Gln-Pro-Glu-Arg (PQPER; Poultry) [SEQ ID NO: 5] | 0.0 |  | 133 µmol/L | 705 µmol/L |  |  | 133 µmol/L |  |  |  | > 2 mmol/L | No effect | 
15 | Pro-Glu-Arg-Asn-Glu (PERNE; Poultry) [SEQ ID NO: 4] | 0.1 |  | 231 µmol/L | 100 µmol/L |  |  |  |  |  |  |  |  | 
16 | Pro-Ile-Asn-Asp-Asn (PINDN; Poultry) [SEQ ID NO: 14] |  |  | 26 µmol/L | tasteless |  |  |  | 63.6 mmol/L NaCl | salt-tase enhancing | 27% |  |  | 
17 | Pro-Leu-Pro-Arg (PLPR; Poultry) [SEQ ID NO: 2] | 0.0 | umami, kokumi | 112 µmol/L | 296 µmol/L |  | astringent | 112 µmol/L |  |  |  |  | 418 µmol/L | 4 times
18 | Pro-Thr-Asp-Leu (PTDL; Poultry) [SEQ ID NO: 15] |  |  | 97 µmol/L | tasteless |  |  |  |  |  |  |  |  | 
19 | Pro-Val-Ala-Glu (PVAE; Poultry) [SEQ ID NO: 16] | 0.7 | kokumi, salty | 243 µmol/L | 688 µmol/L |  |  |  | 62.0 mmol/L NaCl | salt-tase enhancing | 24% |  |  | 
20 | Pro-Val-Leu-Lys (PVLK; Poultry) [SEQ ID NO: 1] | 0.0 |  | 296 µmol/L | tasteless |  |  | 296 µmol/L | 42.9 mmol/L NaCl | salt-tase reducing | 14% |  |  | 
21 | RAEDTATYY [SEQ ID NO: 18] | 0.0 | kokumi, umami | 247 µmol/L | 610 µmol/L |  |  |  |  |  |  |  |  | 
